experiment: Inhibition of Rous sarcoma virus v-Src

SMILES	IC50 [µM]
CC(CCC[C@@H](C)[C@H]1CC[C@H]2[C@@H]3CC=C4C[C@H](OS(=O)(=O)O)[C@@H](OS(=O)(=O)O)C[C@]4(C)[C@H]3CC[C@]12C)COS(=O)(=O)O (some centres not stated)	12
CC(C)CCC[C@@H](COS(=O)(=O)O)[C@H]1CC[C@H]2[C@@H]3CC=C4C[C@H](OS(=O)(=O)O)CC[C@]4(C)[C@H]3CC[C@]12C	31
CC(C)CCC[C@@H](COS(=O)(=O)O)[C@H]1CC[C@H]2[C@@H]3CC[C@@H]4[C@H](O)[C@H](OS(=O)(=O)O)CC[C@]4(C)[C@H]3[C@@H](O)C[C@]12C	62
CC(C)CCC[C@@H](COS(=O)(=O)O)[C@H]1CC[C@H]2[C@@H]3CC=C4C[C@H](OS(=O)(=O)O)C[C@@H](O)[C@]4(C)[C@H]3CC[C@]12C	65

Compounds with a lower IC50, results first:

IC50 [µM]	SMILES
1.5	C[C@@]12CCC(=O)c3coc(c31)C(=O)c1cc3c(cc12)C(=O)C=CC3=O [HELENAQUINONE]
0.6	C[C@@]12CCC(=O)c3coc(c31)C(=O)c1cc3c(O)ccc(O)c3cc12 [HELENAQUINOL]
11	CC(CCC[C@@H](C)[C@H]1CC[C@H]2[C@@H]3CC[C@H]4C[C@H](OS(=O)(=O)O)[C@@H](OS(=O)(=O)O)C[C@]4(C)[C@H]3CC[C@]12C)COS(=O)(=O)O (some centres not stated)
